In patent US11414379B2, “SPAK kinase inhibitors as neuroprotective agents” (United States Government as represented by the Department …, priority 2018, dated 2022):

Assays:
Assay in all cases: Kinase panel (Dundee profiling)
Type in all cases: biochemical
Details in all cases: read-out: % residual kinase activity
[1] = biological target: ABL (Homo sapiens, UniProt P00519)
Experimental: (§1) The kinase selectivity of ZT-1a was further assessed using standard radioisotopic enzymatic assays against a panel of 140 recombinant kinases (Dundee profiling, Table 2) (Bain et al. (2007) The Biochemical journal 408, 297-315). ZT-1a at a concentration of 10 μM inhibited only MAPKAP-K2 activity 85±7% compared to DMSO control, representing high kinase selectivity.
(§2) Referring to Table 2, ZT-1a was tested at 10 and 1 μM against a panel of 140 recombinant kinases in an enzymatic activity-based assay performed by the International Centre for Kinase Profiling in the MRC Protein Phosphorylation and Ubiquitylation Unit. Values represent % residual kinase activity (mean+/−SEM, n=3). Kinases labelled with an asterick* are inhibited ≥50% by ZT-1a.

[2] = biological target: BRSK2 (Homo sapiens, UniProt Q8IWQ3)
Experimental: as §1, §2

[3] = biological target: BTK (Homo sapiens, UniProt Q06187)
Experimental: as §1, §2

[4] = biological target: CAMKKb (Homo sapiens, UniProt Q96RR4)
Experimental: as §1, §2

[5] = biological target: CSK (Homo sapiens, UniProt P41240)
Experimental: as §1, §2

[6] = biological target: DAPK1 (Homo sapiens, UniProt P53355)
Experimental: as §1, §2

[7] = biological target: DYRK1A (Homo sapiens, UniProt Q13627)
Experimental: as §1, §2

[8] = biological target: EIF2AK3 (Homo sapiens, UniProt Q9NZJ5)
Experimental: as §1, §2

[9] = biological target: EPH-A2 (Homo sapiens, UniProt P29317)
Experimental: as §1, §2

[10] = biological target: EPH-A4 (Homo sapiens, UniProt P54764)
Experimental: as §1, §2

[11] = biological target: IGF-1R (Homo sapiens, UniProt P08069)
Experimental: as §1, §2

[12] = biological target: MAP4K5 (Homo sapiens, UniProt Q9Y4K4)
Experimental: as §1, §2

[13] = biological target: MAPKAP-K3 (Homo sapiens, UniProt Q16644)
Experimental: as §1, §2

[14] = biological target: MKK6 (Homo sapiens, UniProt P52564)
Experimental: as §1, §2

[15] = biological target: MLK3 (Homo sapiens, UniProt Q16584)
Experimental: as §1, §2

[16] = biological target: MPSK1 (Homo sapiens, UniProt O75716)
Experimental: as §1, §2

[17] = biological target: OSR1 (Homo sapiens, UniProt O95747)
Experimental: as §1, §2

[18] = biological target: PAK4 (Homo sapiens, UniProt O96013)
Experimental: as §1, §2

[19] = biological target: PIM1 (Homo sapiens, UniProt P11309)
Experimental: as §1, §2

[20] = biological target: PINK (Tribolium castaneum, UniProt D6WMX4)
Experimental: as §1, §2

[21] = biological target: PKA (Homo sapiens, UniProt P17612)
Experimental: as §1, §2

[22] = biological target: PKBb (Homo sapiens, UniProt P31751)
Experimental: as §1, §2

[23] = biological target: PKCz (Homo sapiens, UniProt Q05513)
Experimental: as §1, §2

[24] = biological target: PKD1 (Homo sapiens, UniProt Q15139)
Experimental: as §1, §2

[25] = biological target: SYK (Homo sapiens, UniProt P43405)
Experimental: as §1, §2

[26] = biological target: SmMLCK (Homo sapiens, UniProt Q15746)
Experimental: as §1, §2

[27] = biological target: Src (Homo sapiens, UniProt P12931)
Experimental: as §1, §2

[28] = biological target: TTK (Homo sapiens, UniProt P33981)
Experimental: as §1, §2

[29] = biological target: TrkA (Homo sapiens, UniProt P04629)
Experimental: as §1, §2

[30] = biological target: ULK2 (Homo sapiens, UniProt Q8IYT8)
Experimental: as §1, §2

[31] = biological target: YES1 (Homo sapiens, UniProt P07947)
Experimental: as §1, §2

[32] = biological target: p38a MAPK (Homo sapiens, UniProt Q16539)
Experimental: as §1, §2

Sequence of PAK4 (O96013 whole entry, species assumed): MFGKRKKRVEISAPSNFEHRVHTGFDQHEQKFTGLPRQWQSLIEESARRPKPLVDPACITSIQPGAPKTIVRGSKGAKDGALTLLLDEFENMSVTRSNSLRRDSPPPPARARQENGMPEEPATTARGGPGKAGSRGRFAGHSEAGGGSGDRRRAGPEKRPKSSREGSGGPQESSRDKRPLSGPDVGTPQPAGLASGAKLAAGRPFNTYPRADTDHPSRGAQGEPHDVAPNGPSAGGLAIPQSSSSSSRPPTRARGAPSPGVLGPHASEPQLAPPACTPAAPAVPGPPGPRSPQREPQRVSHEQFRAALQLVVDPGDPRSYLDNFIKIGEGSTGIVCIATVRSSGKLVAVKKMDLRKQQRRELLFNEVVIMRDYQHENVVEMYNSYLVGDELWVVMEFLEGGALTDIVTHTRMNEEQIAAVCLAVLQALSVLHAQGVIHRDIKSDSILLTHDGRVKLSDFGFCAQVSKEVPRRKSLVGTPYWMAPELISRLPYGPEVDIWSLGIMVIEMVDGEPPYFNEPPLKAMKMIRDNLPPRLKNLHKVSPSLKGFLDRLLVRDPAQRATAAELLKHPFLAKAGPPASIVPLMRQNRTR
Sequence of MKK6 (P52564 whole entry, species assumed): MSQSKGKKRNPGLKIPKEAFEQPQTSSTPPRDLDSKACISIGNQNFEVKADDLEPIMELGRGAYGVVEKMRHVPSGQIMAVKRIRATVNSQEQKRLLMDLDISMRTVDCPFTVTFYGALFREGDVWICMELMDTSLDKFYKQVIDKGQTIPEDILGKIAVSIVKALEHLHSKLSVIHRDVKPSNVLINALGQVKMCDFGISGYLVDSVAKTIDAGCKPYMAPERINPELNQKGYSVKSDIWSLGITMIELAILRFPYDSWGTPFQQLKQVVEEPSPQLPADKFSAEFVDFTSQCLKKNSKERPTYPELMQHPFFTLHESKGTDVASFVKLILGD
Sequence of MAP4K5 (Q9Y4K4 whole entry, species assumed): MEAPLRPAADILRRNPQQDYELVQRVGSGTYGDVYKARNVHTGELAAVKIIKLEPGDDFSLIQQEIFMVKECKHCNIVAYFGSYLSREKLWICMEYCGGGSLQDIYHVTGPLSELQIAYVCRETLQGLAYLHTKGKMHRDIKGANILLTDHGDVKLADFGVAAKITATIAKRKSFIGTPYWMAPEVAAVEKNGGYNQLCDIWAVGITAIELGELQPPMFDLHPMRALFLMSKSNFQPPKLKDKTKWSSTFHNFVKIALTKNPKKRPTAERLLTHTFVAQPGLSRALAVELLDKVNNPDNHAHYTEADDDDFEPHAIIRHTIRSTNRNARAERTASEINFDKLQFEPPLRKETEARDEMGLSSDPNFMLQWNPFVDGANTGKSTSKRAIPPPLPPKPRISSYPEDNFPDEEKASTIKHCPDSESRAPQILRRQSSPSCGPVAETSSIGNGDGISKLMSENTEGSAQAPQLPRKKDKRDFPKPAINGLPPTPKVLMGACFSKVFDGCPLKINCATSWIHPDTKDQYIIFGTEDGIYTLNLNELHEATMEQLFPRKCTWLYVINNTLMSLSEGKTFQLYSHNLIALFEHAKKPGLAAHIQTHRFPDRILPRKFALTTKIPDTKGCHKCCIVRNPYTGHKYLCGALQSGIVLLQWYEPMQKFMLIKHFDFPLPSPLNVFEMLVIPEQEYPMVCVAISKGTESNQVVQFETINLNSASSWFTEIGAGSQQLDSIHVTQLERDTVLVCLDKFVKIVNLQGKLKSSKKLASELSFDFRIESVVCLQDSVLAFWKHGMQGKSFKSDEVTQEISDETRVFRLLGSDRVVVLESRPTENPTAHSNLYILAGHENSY
Sequence of EPH-A2 (P29317 24-976, species assumed): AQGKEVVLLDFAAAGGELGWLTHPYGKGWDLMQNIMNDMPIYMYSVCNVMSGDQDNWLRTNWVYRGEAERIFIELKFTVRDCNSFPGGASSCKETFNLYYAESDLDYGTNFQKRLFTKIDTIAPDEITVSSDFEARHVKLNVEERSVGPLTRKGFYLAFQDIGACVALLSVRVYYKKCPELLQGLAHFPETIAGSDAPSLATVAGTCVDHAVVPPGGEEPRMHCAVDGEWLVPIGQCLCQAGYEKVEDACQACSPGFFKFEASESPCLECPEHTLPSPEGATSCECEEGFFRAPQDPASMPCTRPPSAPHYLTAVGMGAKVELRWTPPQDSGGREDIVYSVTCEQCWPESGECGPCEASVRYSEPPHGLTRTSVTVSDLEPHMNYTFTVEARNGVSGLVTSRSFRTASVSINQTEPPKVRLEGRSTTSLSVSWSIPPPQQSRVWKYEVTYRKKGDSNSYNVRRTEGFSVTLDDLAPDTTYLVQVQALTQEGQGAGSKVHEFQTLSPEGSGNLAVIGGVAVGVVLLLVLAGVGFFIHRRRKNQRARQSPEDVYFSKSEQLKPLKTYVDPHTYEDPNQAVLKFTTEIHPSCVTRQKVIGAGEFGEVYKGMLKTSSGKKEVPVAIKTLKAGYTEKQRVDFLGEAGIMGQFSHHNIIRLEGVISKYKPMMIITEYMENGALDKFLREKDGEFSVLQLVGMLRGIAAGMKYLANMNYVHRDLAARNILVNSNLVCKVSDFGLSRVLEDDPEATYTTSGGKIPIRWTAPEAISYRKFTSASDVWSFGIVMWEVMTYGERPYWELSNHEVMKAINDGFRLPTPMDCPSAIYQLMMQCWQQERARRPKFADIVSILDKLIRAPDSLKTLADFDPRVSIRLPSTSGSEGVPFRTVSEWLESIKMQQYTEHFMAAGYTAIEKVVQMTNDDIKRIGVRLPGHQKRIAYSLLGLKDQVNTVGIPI
Sequence of DAPK1 (P53355 whole entry, species assumed): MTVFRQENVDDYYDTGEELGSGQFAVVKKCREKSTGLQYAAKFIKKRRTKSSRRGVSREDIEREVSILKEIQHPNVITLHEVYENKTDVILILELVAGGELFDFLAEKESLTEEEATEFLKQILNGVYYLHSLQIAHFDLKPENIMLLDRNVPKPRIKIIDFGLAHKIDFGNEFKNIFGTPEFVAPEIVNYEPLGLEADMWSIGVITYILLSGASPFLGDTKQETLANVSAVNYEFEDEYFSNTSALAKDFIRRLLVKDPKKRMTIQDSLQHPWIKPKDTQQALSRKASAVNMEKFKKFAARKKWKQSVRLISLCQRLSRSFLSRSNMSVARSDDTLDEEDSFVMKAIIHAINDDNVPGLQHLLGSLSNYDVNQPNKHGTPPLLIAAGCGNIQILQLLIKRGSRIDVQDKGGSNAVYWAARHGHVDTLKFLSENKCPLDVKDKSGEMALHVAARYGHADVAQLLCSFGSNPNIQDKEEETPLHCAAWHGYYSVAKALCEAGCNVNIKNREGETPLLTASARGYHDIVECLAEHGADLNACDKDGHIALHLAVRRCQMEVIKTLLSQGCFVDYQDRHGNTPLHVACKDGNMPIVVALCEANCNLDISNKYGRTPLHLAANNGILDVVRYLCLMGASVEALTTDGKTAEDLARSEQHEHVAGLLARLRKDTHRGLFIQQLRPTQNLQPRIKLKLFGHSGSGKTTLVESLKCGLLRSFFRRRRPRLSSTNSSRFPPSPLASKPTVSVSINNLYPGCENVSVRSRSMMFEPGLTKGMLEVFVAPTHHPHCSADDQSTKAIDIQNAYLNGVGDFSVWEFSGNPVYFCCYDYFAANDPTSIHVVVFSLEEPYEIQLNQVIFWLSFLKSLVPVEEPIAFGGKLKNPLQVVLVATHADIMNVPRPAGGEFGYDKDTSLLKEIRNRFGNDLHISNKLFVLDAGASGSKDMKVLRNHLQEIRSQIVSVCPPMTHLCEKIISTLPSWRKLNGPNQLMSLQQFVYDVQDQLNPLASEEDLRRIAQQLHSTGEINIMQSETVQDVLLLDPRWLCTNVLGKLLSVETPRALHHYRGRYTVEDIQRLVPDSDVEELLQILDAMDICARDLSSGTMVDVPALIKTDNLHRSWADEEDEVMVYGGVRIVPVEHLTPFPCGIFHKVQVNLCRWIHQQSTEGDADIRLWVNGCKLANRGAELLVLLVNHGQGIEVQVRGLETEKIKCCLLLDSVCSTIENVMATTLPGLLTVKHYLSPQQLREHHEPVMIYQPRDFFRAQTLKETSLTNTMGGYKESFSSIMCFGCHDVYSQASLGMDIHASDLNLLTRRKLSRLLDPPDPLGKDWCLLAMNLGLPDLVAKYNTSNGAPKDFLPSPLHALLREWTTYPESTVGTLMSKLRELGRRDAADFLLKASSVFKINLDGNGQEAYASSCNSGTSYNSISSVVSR
Sequence of MAPKAP-K3 (Q16644 whole entry, species assumed): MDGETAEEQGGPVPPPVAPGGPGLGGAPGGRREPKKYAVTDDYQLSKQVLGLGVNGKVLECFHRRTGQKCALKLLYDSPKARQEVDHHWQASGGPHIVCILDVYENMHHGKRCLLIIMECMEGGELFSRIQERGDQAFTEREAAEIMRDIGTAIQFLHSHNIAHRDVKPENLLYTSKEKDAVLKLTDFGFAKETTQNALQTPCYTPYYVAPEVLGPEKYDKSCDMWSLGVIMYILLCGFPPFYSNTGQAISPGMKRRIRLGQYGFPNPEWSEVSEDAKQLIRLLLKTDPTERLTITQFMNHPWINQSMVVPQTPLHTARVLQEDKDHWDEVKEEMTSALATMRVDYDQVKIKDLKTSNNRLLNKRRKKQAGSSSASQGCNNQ
Sequence of PKBb (P31751 whole entry): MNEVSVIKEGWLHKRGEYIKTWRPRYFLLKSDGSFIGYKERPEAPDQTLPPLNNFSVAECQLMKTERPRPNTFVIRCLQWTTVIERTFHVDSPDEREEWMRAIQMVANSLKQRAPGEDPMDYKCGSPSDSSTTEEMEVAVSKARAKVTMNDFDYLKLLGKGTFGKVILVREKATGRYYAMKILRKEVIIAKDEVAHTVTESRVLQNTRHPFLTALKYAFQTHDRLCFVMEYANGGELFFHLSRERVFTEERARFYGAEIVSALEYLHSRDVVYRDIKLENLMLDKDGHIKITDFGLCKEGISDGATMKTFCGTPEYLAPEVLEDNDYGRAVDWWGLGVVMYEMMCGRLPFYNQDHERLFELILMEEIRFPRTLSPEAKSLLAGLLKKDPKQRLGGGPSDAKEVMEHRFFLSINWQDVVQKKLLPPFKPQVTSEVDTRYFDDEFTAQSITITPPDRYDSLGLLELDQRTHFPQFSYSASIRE

`Cc1cc(C(C#N)c2ccc(Cl)cc2)c(Cl)cc1NC(=O)c1cc(Cl)ccc1O` (stereo not shown) [ZT-1a, 5-chloro-N-(5-chloro-4-((4-chlorophenyl)(cyano)methyl)-2-methylphenyl)-2-hydroxy-benzamide] gave a remaining activity at 1 µM ([1]; 1 μM) of 85 ± 4%, a remaining activity at 10 µM ([1]; 10 μM) of 68 ± 16% and a remaining activity at 1 µM ([2]; 1 μM) of 115 ± 14%. It also gave a remaining activity at 10 µM ([2]; 10 μM) of 104%, a remaining activity at 1 µM ([3]; 1 μM) of 113 ± 1% and a remaining activity at 10 µM ([3]; 10 μM) of 73 ± 2%. It also gave a remaining activity at 1 µM ([4]; 1 μM) of 115 ± 10%, a remaining activity at 10 µM ([4]; 10 μM) of 102 ± 9% and a remaining activity at 1 µM ([5]; 1 μM) of 96 ± 8%. The remaining activity at 10 µM ([5]; 10 μM) was 106 ± 29%, the remaining activity at 1 µM ([6]; 1 μM) was 131 ± 8% and the remaining activity at 10 µM ([6]; 10 μM) was 159 ± 11%. The remaining activity at 1 µM ([7]; 1 μM) was 119 ± 7%, the remaining activity at 10 µM ([7]; 10 μM) was 103 ± 1% and the remaining activity at 1 µM ([8]; 1 μM) was 114 ± 2%. It also gave a remaining activity at 10 µM ([8]; 10 μM) of 100 ± 3%, a remaining activity at 1 µM ([9]; 1 μM) of 89 ± 23% and a remaining activity at 10 µM ([9]; 10 μM) of 78 ± 11%. It also gave a remaining activity at 1 µM ([10]; 1 μM) of 59 ± 33%, a remaining activity at 10 µM ([10]; 10 μM) of 90 ± 11% and a remaining activity at 1 µM ([11]; 1 μM) of 145 ± 2%. It also gave a remaining activity at 10 µM ([11]; 10 μM) of 123 ± 3%, a remaining activity at 1 µM ([12]; 1 μM) of 95 ± 28% and a remaining activity at 10 µM ([12]; 10 μM) of 76 ± 9%. The remaining activity at 1 µM ([13]; 1 μM) was 96 ± 26%, the remaining activity at 10 µM ([13]; 10 μM) was 72 ± 8% and the remaining activity at 1 µM ([14]; 1 μM) was 102 ± 12%. It also gave a remaining activity at 10 µM ([14]; 10 μM) of 82 ± 16%, a remaining activity at 1 µM ([15]; 1 μM) of 119 ± 11% and a remaining activity at 10 µM ([15]; 10 μM) of 114 ± 3%. For the same molecule, the remaining activity at 1 µM ([16]; 1 μM) was 110 ± 6%, the remaining activity at 10 µM ([16]; 10 μM) was 105 ± 2% and the remaining activity at 1 µM ([17]; 1 μM) was 106 ± 9%. The remaining activity at 10 µM ([17]; 10 μM) was 98 ± 3%, the remaining activity at 1 µM ([18]; 1 μM) was 81 ± 16% and the remaining activity at 10 µM ([18]; 10 μM) was 51 ± 3%. The remaining activity at 1 µM ([19]; 1 μM) was 108 ± 19%, the remaining activity at 10 µM ([19]; 10 μM) was 101 ± 8% and the remaining activity at 1 µM ([20]; 1 μM) was 101 ± 13%. For the same molecule, the remaining activity at 10 µM ([20]; 10 μM) was 59 ± 4%, the remaining activity at 1 µM ([21]; 1 μM) was 80 ± 11% and the remaining activity at 10 µM ([21]; 10 μM) was 50 ± 2%. The remaining activity at 1 µM ([22]; 1 μM) was 76 ± 14%, the remaining activity at 10 µM ([22]; 10 μM) was 51 ± 13% and the remaining activity at 1 µM ([23]; 1 μM) was 80 ± 11%. It also gave a remaining activity at 10 µM ([23]; 10 μM) of 122 ± 28%, a remaining activity at 1 µM ([24]; 1 μM) of 89% and a remaining activity at 10 µM ([24]; 10 μM) of 79 ± 10%. It also gave a remaining activity at 1 µM ([25]; 1 μM) of 93 ± 12%, a remaining activity at 10 µM ([25]; 10 μM) of 93 ± 1% and a remaining activity at 1 µM ([26]; 1 μM) of 99 ± 3%. For the same molecule, the remaining activity at 10 µM ([26]; 10 μM) was 98 ± 9%, the remaining activity at 1 µM ([27]; 1 μM) was 107 ± 4% and the remaining activity at 10 µM ([27]; 10 μM) was 84 ± 13%. The remaining activity at 1 µM ([28]; 1 μM) was 104 ± 2%, the remaining activity at 10 µM ([28]; 10 μM) was 91 ± 5% and the remaining activity at 1 µM ([29]; 1 μM) was 108 ± 9%. It also gave a remaining activity at 10 µM ([29]; 10 μM) of 91 ± 7%, a remaining activity at 1 µM ([30]; 1 μM) of 110 ± 11% and a remaining activity at 10 µM ([30]; 10 μM) of 49 ± 9%. For the same molecule, the remaining activity at 1 µM ([31]; 1 μM) was 109 ± 3%, the remaining activity at 10 µM ([31]; 10 μM) was 98 ± 7% and the remaining activity at 1 µM ([32]; 1 μM) was 128 ± 7%. For the same molecule, the remaining activity at 10 µM ([32]; 10 μM) was 113 ± 2%.
